Measurements taken from PubChem BioAssay AID1963963 (Molecular Pharmacology Branch, DTP, NCI, 2024).

Tested on: 958667-338-R-J2-PDC tumor spheroids viability
Test: Anticancer human tumor 958667-338-R-J2-PDC patient-derived colon adenocarcinoma cell line growth inhibition [PI3K]
Settings: spheroids with HUVEC and MSC; for IC50: curve of first compound; for viability, T/C: stronger effect = lower value; active = viability on the fitted dose curve at most 10% of control; inactive = the rest
Method in brief: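 High-throughput combination screen: PI3K inhibitors crossed with targeted small molecules on complex spheroids of tumor cells, HUVEC and MSCs at 37 degrees C, 5% CO2. Top concentration was at or near clinical Cmax (otherwise 10 microM), with half-log decrements.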
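Note: spheroids exposed to compounds for seven days before readout.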

C=CC(=O)N1CCN(c2nc(=O)n(-c3c(C)ccnc3C(C)C)c3nc(-c4c(O)cccc4F)c(F)cc23)C(C)C1 (configuration not stated) + CC(Nc1ccc2c(c1)OCCn1cc(N3C(=O)OCC3C(F)F)nc1-2)C(N)=O
> 10 µM: IC50 (second compound 0.00316 µM) | IC50 (second compound 0.01 µM) | IC50 (second compound 0.0316 µM) | IC50 (second compound 0.1 µM) | IC50 (second compound 0.316 µM) | IC50 (second compound 1 µM)
inactive: viability, T/C (second compound 0.00316 µM, first compound 0.0316 µM) 85.9% | viability, T/C (second compound 0.00316 µM, first compound 0.1 µM) 112% | viability, T/C (second compound 0.00316 µM, first compound 0.316 µM) 82.4% | viability, T/C (second compound 0.00316 µM, first compound 1 µM) 112% | viability, T/C (second compound 0.00316 µM, first compound 3.16 µM) 101% | viability, T/C (second compound 0.00316 µM, first compound 10 µM) 111% | viability, T/C (second compound 0.01 µM, first compound 0.0316 µM) 88.2% | viability, T/C (second compound 0.01 µM, first compound 0.1 µM) 100% | viability, T/C (second compound 0.01 µM, first compound 0.316 µM) 101% | viability, T/C (second compound 0.01 µM, first compound 1 µM) 102% | viability, T/C (second compound 0.01 µM, first compound 3.16 µM) 115% | viability, T/C (second compound 0.01 µM, first compound 10 µM) 94.5% | viability, T/C (second compound 0.0316 µM, first compound 0.0316 µM) 87.3% | viability, T/C (second compound 0.0316 µM, first compound 0.1 µM) 96.4% | viability, T/C (second compound 0.0316 µM, first compound 0.316 µM) 88% | viability, T/C (second compound 0.0316 µM, first compound 1 µM) 87.3% | viability, T/C (second compound 0.0316 µM, first compound 3.16 µM) 89.7% | viability, T/C (second compound 0.0316 µM, first compound 10 µM) 98.3% | viability, T/C (second compound 0.1 µM, first compound 0.0316 µM) 80.5% | viability, T/C (second compound 0.1 µM, first compound 0.1 µM) 88.8% | viability, T/C (second compound 0.1 µM, first compound 0.316 µM) 101% | viability, T/C (second compound 0.1 µM, first compound 1 µM) 86.3% | viability, T/C (second compound 0.1 µM, first compound 3.16 µM) 96.7% | viability, T/C (second compound 0.1 µM, first compound 10 µM) 99.3% | viability, T/C (second compound 0.316 µM, first compound 0.0316 µM) 58.2% | viability, T/C (second compound 0.316 µM, first compound 0.1 µM) 62.7% | viability, T/C (second compound 0.316 µM, first compound 0.316 µM) 65.2% | viability, T/C (second compound 0.316 µM, first compound 1 µM) 75.2% | viability, T/C (second compound 0.316 µM, first compound 3.16 µM) 72.4% | viability, T/C (second compound 0.316 µM, first compound 10 µM) 70.7% | viability, T/C (second compound 1 µM, first compound 0.0316 µM) 57.2% | viability, T/C (second compound 1 µM, first compound 0.1 µM) 55.2% | viability, T/C (second compound 1 µM, first compound 0.316 µM) 75.1% | viability, T/C (second compound 1 µM, first compound 1 µM) 62.2% | viability, T/C (second compound 1 µM, first compound 3.16 µM) 61.3% | viability, T/C (second compound 1 µM, first compound 10 µM) 60.4%
